Data taken from patent US10556884B2, “Pesticidally active heterocyclic derivatives with sulphur containing substituents” (SYNGENTA PARTICIPATIONS AG, priority 2015, dated 2020).
Where two headings read alike, the source gives them in different places.

Experiments:
[1] = system: Myzus persicae (Green Peach Aphid); assay: Myzus persicae feeding/contact activity, sunflower leaf discs; assay type: in vivo; conditions: foliar, 144 h
Experimental: Example B5: Myzus persicae (Green Peach Aphid): Feeding/Contact Activity
(§1) Sunflower leaf discs were placed onto agar in a 24-well microtiter plate and sprayed with aqueous test solutions prepared from 10′000 ppm DMSO stock solutions. After drying, the leaf discs were infested with an aphid population of mixed ages. The samples were assessed for mortality 6 days after infestation.

[2] = system: Myzus persicae (Green Peach Aphid); assay: Myzus persicae systemic activity, pea seedlings; assay type: in vivo; conditions: 144 h, test rate of 24 ppm, 6 days after placing seedlings into test solutions
[3] = system: Plutella xylostella (Diamond Back Moth); assay: Plutella xylostella L2 larvae on artificial diet; assay type: in vivo; conditions: 120 h, read-out: effect in at least one of the two categories (mortality or growth inhibition); for percent effect (mortality or growth inhibition) at 200 ppm: application rate of 200 ppm, L2 larvae, 5 days after infestation
Experimental: Example B7: Plutella xylostella (Diamond Back Moth)
(§2) 24-well microtiter plates with artificial diet were treated with aqueous test solutions prepared from 10′000 ppm DMSO stock solutions by pipetting. After drying, the plates were infested with L2 larvae (10 to 15 per well). The samples were assessed for mortality and growth inhibition in comparison to untreated samples 5 days after infestation.

[4] = system: Spodoptera littoralis (Egyqptian Cotton Leaf Worm); assay: Spodoptera littoralis L1 larvae on sprayed cotton leaf discs; assay type: in vivo; conditions: foliar, 72 h, read-out: control (mortality, anti-feeding effect, growth inhibition)
Experimental: Example B8: Spodoptera littoralis (Egyqptian Cotton Leaf Worm)
Cotton leaf discs were placed onto agar in 24-well microtiter plates and sprayed with aqueous test solutions prepared from 10′000 ppm DMSO stock solutions. After drying the leaf discs were infested with five L1 larvae. The samples were assessed for mortality, anti-feeding effect, and growth inhibition in comparison to untreated samples 3 days after infestation. Control of Spodoptera littoralis by a test sample is given when at least one of the categories mortality, anti-feedant effect, and growth inhibition is higher than the untreated sample.

[5] = system: Diabrotica Balteata (Corn Root Worm); assay: Diabrotica balteata L2 larvae on maize sprouts; assay type: in vivo; conditions: 96 h, read-out: effect in at least one of the two categories (mortality or growth inhibition); for percent effect (mortality or growth inhibition) at 200 ppm: application rate of 200 ppm, L2 larvae, 4 days after infestation
Experimental: Example B2: Diabrotica Balteata (Corn Root Worm)
as §2, with “Maize sprouts placed onto an agar layer in 24-well” for “24-well”, “plates” for “plates with artificial diet”, “spraying.” for “pipetting.”, “(6” for “(10”, “10” for “15”, “4” for “5”

[6] = system: Thrips tabaci (Onion Thrips); assay: Thrips tabaci feeding/contact activity, sunflower leaf discs; assay type: in vivo; conditions: foliar, 144 h, application rate of 200 ppm, population of mixed ages, 6 days after infestation
Experimental: Example B11: Thrips tabaci (Onion Thrips) Feeding/Contact Activity
as §1, with “on” for “onto”, “in” for “in a”, “plates” for “plate”, “drying” for “drying,”, “a thrips” for “an aphid”

[7] = application rate of 200 ppm, feeding/contact, population of mixed ages, 6 days after infestation, read-out: mortality
[8] = application rate of 200 ppm, L1 larvae, 3 days after infestation

SMILES	mortality at 200 ppm [1, 7]	mortality at 24 ppm [2]	further results
CCSc1cc(NC(=O)C2CC2)cnc1-c1nnc(-c2cc(C(F)(F)F)ccn2)n1C [A1, N-[5-ethylsulfanyl-6-[4-methyl-5-[4-(trifluoromethyl)-2-pyridyl]-1,2,4-triazol-3-yl]-3-pyridyl]cyclopropanecarboxamide]	≥ 80%	–	–
CCS(=O)(=O)c1cc(C=O)cnc1-c1nnc(-c2cc(C(F)(F)F)ccn2)n1C [A3, 5-ethylsulfonyl-6-[4-methyl-5-[4-(trifluoromethyl)-2-pyridyl]-1,2,4-triazol-3-yl]pyridine-3-carbaldehyde]	≥ 80%	≥ 80%	–
CCS(=O)(=O)c1cc(C(C)=O)cnc1-c1nnc(-c2cc(C(F)(F)F)ccn2)n1C [A4, 1-[5-ethylsulfonyl-6-[4-methyl-5-[4-(trifluoromethyl)-2-pyridyl]-1,2,4-triazol-3-yl]-3-pyridyl]ethanone]	–	≥ 80%	–
CCS(=O)(=O)c1ccc(NC2CC2)nc1-c1nnc(-c2cc(C(F)(F)F)ccn2)n1C [A5, N-cyclopropyl-5-ethylsulfonyl-6-[4-methyl-5-[4-(trifluoromethyl)-2-pyridyl]-1,2,4-triazol-3-yl]pyridin-2-amine]	≥ 80%	≥ 80%	–
CCS(=O)(=O)c1ccc(N(C)C(=O)C2CC2)nc1-c1nnc(-c2cc(C(F)(F)F)ccn2)n1C [A8, N-[5-ethylsulfonyl-6-[4-methyl-5-[4-(trifluoromethyl)-2-pyridyl]-1,2,4-triazol-3-yl]-2-pyridyl]-N-methyl-cyclopropanecarboxamide]	≥ 80%	≥ 80%	percent effect (mortality or growth inhibition) at 200 ppm [3]: ≥ 80%; mortality at 200 ppm [4, 8]: ≥ 80%; percent effect (mortality or growth inhibition) at 200 ppm [5]: ≥ 80%; mortality at 200 ppm [6]: ≥ 80%
CCS(=O)(=O)c1cc(N(C)C2CC2)cnc1-c1nnc(-c2cc(C(F)(F)F)ccn2)n1C [A10, N-cyclopropyl-5-ethylsulfonyl-N-methyl-6-[4-methyl-5-[4-(trifluoromethyl)-2-pyridyl]-1,2,4-triazol-3-yl]pyridin-3-amine]	≥ 80%	–	mortality at 200 ppm [4, 8]: ≥ 80%
CCS(=O)(=O)c1ccc(N(C)C2CC2)nc1-c1nnc(-c2cc(C(F)(F)F)ccn2)n1C [A11, N-cyclopropyl-5-ethylsulfonyl-N-methyl-6-[4-methyl-5-[4-(trifluoromethyl)-2-pyridyl]-1,2,4-triazol-3-yl]pyridin-2-amine]	≥ 80%	≥ 80%	–
CCS(=O)(=O)c1cc(N(C)S(C)(=O)=O)cnc1-c1nnc(-c2cc(C(F)(F)F)ccn2)n1C [A12, N-[5-ethylsulfonyl-6-[4-methyl-5-[4-(trifluoromethyl)-2-pyridyl]-1,2,4-triazol-3-yl]-3-pyridyl]-N-methyl-methanesulfonamide]	≥ 80%	≥ 80%	–
CCS(=O)(=O)c1cc(NS(C)(=O)=O)cnc1-c1nnc(-c2cc(C(F)(F)F)ccn2)n1C [A14, N-[5-ethylsulfonyl-6-[4-methyl-5-[4-(trifluoromethyl)-2-pyridyl]-1,2,4-triazol-3-yl]-3-pyridyl]methanesulfonamide]	–	–	melting point: 228 to 230 °C
CCS(=O)(=O)c1cc(C(=O)N(C)C2CC2)cnc1-c1nnc(-c2cc(C(F)(F)F)ccn2)n1C [A16, N-cyclopropyl-5-ethylsulfonyl-N-methyl-6-[4-methyl-5-[4-(trifluoromethyl)-2-pyridyl]-1,2,4-triazol-3-yl]pyridine-3-carboxamide]	–	–	melting point: 235 to 237 °C
CCS(=O)(=O)c1ccc(C(=O)NC2CC2)nc1-c1nnc(-c2cc(C(F)(F)F)ccn2)n1C [A19, N-cyclopropyl-5-ethylsulfonyl-6-[4-methyl-5-[4-(trifluoromethyl)-2-pyridyl]-1,2,4-triazol-3-yl]pyridine-2-carboxamide]	≥ 80%	≥ 80%	mortality at 200 ppm [6]: ≥ 80%
CCS(=O)(=O)c1cc(N(C(=O)C2CC2)S(C)(=O)=O)cnc1-c1nnc(-c2cc(C(F)(F)F)ccn2)n1C [A20, N-[5-ethylsulfonyl-6-[4-methyl-5-[4-(trifluoromethyl)-2-pyridyl]-1,2,4-triazol-3-yl]-3-pyridyl]-N-methylsulfonyl-cyclopropanecarboxamide]	–	–	melting point: 229 to 231 °C
CCS(=O)(=O)c1cc(NC2(C#N)CC2)cnc1-c1nnc(-c2cc(C(F)(F)F)ccn2)n1C [A22, 1-[[5-ethylsulfonyl-6-[4-methyl-5-[4-(trifluoromethyl)-2-pyridyl]-1,2,4-triazol-3-yl]-3-pyridyl]amino]cyclopropanecarbonitrile]	–	≥ 80%	–
CCS(=O)(=O)c1cc(C(=O)NC2(C#N)CC2)cnc1-c1nnc(-c2cc(C(F)(F)F)ccn2)n1C [A23, N-(1-cyanocyclopropyl)-5-ethylsulfonyl-6-[4-methyl-5-[4-(trifluoromethyl)-2-pyridyl]-1,2,4-triazol-3-yl]pyridine-3-carboxamide]	–	–	melting point: 211 to 213 °C
CCS(=O)(=O)c1cc(N/C=N/OC)cnc1-c1nnc(-c2cc(C(F)(F)F)ccn2)n1C [A24, N-[5-ethylsulfonyl-6-[4-methyl-5-[4-(trifluoromethyl)-2-pyridyl]-1,2,4-triazol-3-yl]-3-pyridyl]-N′-methoxy-formamidine]	–	≥ 80%	–
CCS(=O)(=O)c1cc(N(C)/C=N/OC)cnc1-c1nnc(-c2cc(C(F)(F)F)ccn2)n1C [A25, N-[5-ethylsulfonyl-6-[4-methyl-5-[4-(trifluoromethyl)-2-pyridyl]-1,2,4-triazol-3-yl]-3-pyridyl]-N′-methoxy-N-methyl-formamidine]	≥ 80%	≥ 80%	–
CCS(=O)(=O)c1ccc(N(CC(F)(F)F)C(=O)C2CC2)nc1-c1nnc(-c2cc(C(F)(F)F)ccn2)n1C [A29, N-[5-ethylsulfonyl-6-[4-methyl-5-[4-(trifluoromethyl)-2-pyridyl]-1,2,4-triazol-3-yl]-2-pyridyl]-N-(2,2,2-trifluoroethyl)cyclopropanecarboxamide]	≥ 80%	–	percent effect (mortality or growth inhibition) at 200 ppm [3]: ≥ 80%; mortality at 200 ppm [4, 8]: ≥ 80%; percent effect (mortality or growth inhibition) at 200 ppm [5]: ≥ 80%; mortality at 200 ppm [6]: ≥ 80%
CCS(=O)(=O)c1cc(N(C)N(C)C(=O)C2CC2)cnc1-c1nnc(-c2cc(C(F)(F)F)ccn2)n1C [A31, N′-[5-ethylsulfonyl-6-[4-methyl-5-[4-(trifluoromethyl)-2-pyridyl]-1,2,4-triazol-3-yl]-3-pyridyl]-N,N′-dimethyl-cyclopropanecarbohydrazide]	≥ 80%	≥ 80%	–
CCS(=O)(=O)c1cc(N)cnc1-c1nnc(-c2cc(C(F)(F)F)ccn2)n1C [A35, 5-ethylsulfonyl-6-[4-methyl-5-[4-(trifluoromethyl)-2-pyridyl]-1,2,4-triazol-3-yl]pyridin-3-amine]	≥ 80%	–	–
CCS(=O)(=O)c1ccc(N(C)C(=O)OC(C)(C)C)nc1-c1nnc(-c2cc(C(F)(F)F)ccn2)n1C [A38, Tert-Butyl N-[5-ethylsulfonyl-6-[4-methyl-5-[4-(trifluoromethyl)-2-pyridyl]-1,2,4-triazol-3-yl]-2-pyridyl]-N-methyl-carbamate]	–	–	percent control (mortality or growth inhibition) at 200 ppm [3]: ≥ 80%; mortality at 200 ppm [4]: ≥ 80%; mortality at 200 ppm [1]: ≥ 80%; percent control (mortality or growth inhibition) at 200 ppm [5]: ≥ 80%
CCS(=O)(=O)c1cc(N(C)C(=O)OC(C)(C)C)cnc1-c1nnc(-c2cc(C(F)(F)F)ccn2)n1C [A39, Tert-Butyl N-[5-ethylsulfonyl-6-[4-methyl-5-[4-(trifluoromethyl)-2-pyridyl]-1,2,4-triazol-3-yl]-3-pyridyl]-N-methyl-carbamate]	–	–	percent control (mortality or growth inhibition) at 200 ppm [3]: ≥ 80%; mortality at 200 ppm [4]: ≥ 80%; percent control (mortality or growth inhibition) at 200 ppm [5]: ≥ 80%
CCS(=O)(=O)c1ccc(NC)nc1-c1nnc(-c2cc(C(F)(F)F)ccn2)n1C [A41, 5-ethylsulfonyl-N-methyl-6-[4-methyl-5-[4-(trifluoromethyl)-2-pyridyl]-1,2,4-triazol-3-yl]pyridin-2-amine]	≥ 80%	≥ 80%	–
